The format of series [1] is physicochemical. Particulars: pH 7. The protocol:
Alternatively, the compound of the invention may be prepared using optically active reactants. When pure diastereomers of mono-L-valine ganciclovir are prepared the condensation step (d) is the preferred method of synthesis. However, if optically active reagents are being used it would be important to avoid the pH range above 6, as at the higher pH range interconversion of the free compound of Formula I occurs.

Series [2] in a line: Determination of oral absorption (bioavailability) in the rat. How it is done: The following assay was used to determine the oral absorption (oral bioavailability) of the compound of Formula I (L-monovaline ester of ganciclovir) and of other ganciclovir amino acid esters, other ganciclovir esters and ethers examined for comparative purposes.
To measure the oral bioavailability of a compound first the plasma level of the compound in male rats was determined after a single oral (po) dose of the compound. […] For ganciclovir the single dose in each case, po and iv, is 10 mg/kg; for a prodrug ester (including the L-monovaline ester of ganciclovir) the single dose in each case, oral and iv, is a dose equimolar to 10 mg/kg of ganciclovir. From the two measurements following po and iv administration, the oral bioavailability of a compound was calculated by dividing the total area under the concentration vs. time curve following p.o. administration by the total area under the concentration vs. time curve following iv administration, appropriately corrected for dose, according to the equation: F(p.o.) (%) = [AUC(p.o.) /AUC(i.v.) ] x [Dose(i.v.) / Dose(p.o.) ] x 100 [formula]
The dose vehicle for oral and intravenous dosing consisted normal saline containing 2 % acetic acid. In both cases the compound concentration was equivalent to 4.0 mg/ml ganciclovir with a dose rate equivalent to 10 mg/kg (2.5 ml/kg) of ganciclovir. A 200 gm rat received 0.5 ml of the oral drug solution by gavage or via injection into the tail vein.
The rats were acclimatized to the laboratory environment for three days and fasted overnight before start of the experiment and until 4 hours after dosing. Blood was collected from 4 rats at each of the following times: 0 min (pre-dose), 5 min (iv only), 15 min, 30 min, 1 hr, 2 hr, 3 hr, 5 hr, 7 hr, 10 hr and 24 hr. The blood was immediately centrifuged to obtain the plasma and the plasma frozen at -20 °C until analysis.
Aliquots of plasma (0.50 ml) were mixed with 0.020 ml of internal standard (acyclovir, 15 µg/ml in 10 % methanol/water) and 3.0 ml of acetonitrile. The mixture was vortexed and the resulting precipitate was removed by centrifugation (4,000 g, 10 min). The supernatant was evaporated to dryness under nitrogen and reconstituted in 200 µl of HPLC mobile phase. Aliquots (0.05 ml) were analyzed by HPLC using a Keystone Hypersil BDS, 250 x 4.6 mm C 18 column. The mobile phase contained 2 % acetonitrile in 30 mM sodium phosphate buffer containing 5 mM heptane sulfonic acid, pH 2.0 and was pumped at 1.0 ml/min. Ganciclovir and internal standard were detected and measured by UV absorbance at 254 nm.

The conditions of series [3]: in vivo, po; cited from earlier work.
Series [4] is described as follows: Determination of oral absorption (bioavailability) in the Cynomolgus monkey. The format is in vivo, Male cynomolgus monkeys. Particulars: oral gavage dose equimolar to 10 mg/kg ganciclovir, plasma ganciclovir. How it is done: Male cynomolgus monkeys weighing 5 to 7 kilos were used. The animals were fed monkey chow, fruit and water and maintained on a 12 hour light cycle. The tested compounds were formulated at a concentration equimolar to a 10 mg/ml solution of ganciclovir in saline. The oral formulation was administered by gavage at a rate of 1.0 ml/kg for a final dose equimolar to a 10 mg/kg dose of ganciclovir. The iv formulation of ganciclovir was formulated in saline containing 0.2% HCl at a concentration of 20 mg/ml and administered at a rate of 0.5 ml/kg.
The animals were fasted beginning the evening prior to dosing and until 4 hr after dosing. […] The blood samples were collected in heparinized syringes and the plasma was immediately isolated by centrifugation and frozen at -20 °C until analysis.
The bioavailability (F) is calculated according to the equation given in Example 9.

The conditions of series [5]: relative to acyclovir; cited from earlier work.

Take `CC(C)[C@H](N)C(=O)OCC(CO)OCn1cnc2c(=O)nc(N)[nH]c21` (stereo partly drawn) [Formula I, 2-(2-amino-1,6-dihydro-6-oxo-purin-9-yl)methoxy-3-hydroxy-1-propanyl-L-valinate]: the half-life result in series [1] is reported as “less than one”.

For `CC(C)[C@H](N)C(=O)OCC(CO)OCn1cnc2c(=O)[nH]c(N)nc21.Cl` (stereo partly drawn) [G-L-valinate hydrochloride, 2-(2-Amino-1,6-dihydro-6-oxo-purin-9-yl)methoxy-3-hydroxy-1-propanyl-L-valinate hydrochloride], the “ORAL BIOAVAILABILITY (F %)” value in series [2] (rat, in vivo, 1440 min) worked out at 98.1%.

Take `CCC(=O)OCC(COC(=O)CC)OCn1cnc2c(=O)[nH]c(N)nc21` [G-bis(propionic acid) ester]: the “more bioavailable than ganciclovir itself” value in series [3] is given as “about 42%”. The “ORAL BIOAVAILABILITY (F %)” value in series [2] (rat, in vivo, 1440 min) worked out at 17.7%.

As to `Nc1nc2c(ncn2COC(COCc2ccccc2)COCc2ccccc2)c(=O)[nH]1` [G-dibenzyl ether], the “ORAL BIOAVAILABILITY (F %)” value in series [2] (male rats, single po and iv dose equimolar to 10 mg/kg ganciclovir, plasma ganciclovir AUC 0-24 hr) is given as “non-detectable”.

`Nc1nc(O)c2ncn(COC(CO)CO)c2n1` [Ganciclovir, 2-(2-Amino-1,6-dihydro-6-oxo-purin-9-yl)-methoxy-1,3-propanediol] returned a bioavailability in series [4] of 9.9%. In addition, the bioavailability at 24 h in series [2] (rat, plasma, po, 10 mg/kg) came to 7.9%.

Take `NCC(=O)OCCOCn1cnc2c(=O)[nH]c(N)nc21` [glycyl ester of acyclovir]: the “solubility greater than the solubility of acyclovir itself” value in series [5] is “about 30 fold”.

The values are drawn from patent publication EP0694547B1, “2-(2-amino-1,6-dihydro-6-oxo-purin-9-yl)methoxy-1,3-propanediol derivatives” (F. Hoffmann-La Roche AG, priority 1994, dated 1996).
